This is an account of results in ChEMBL document CHEMBL1201862, “PubChem BioAssay data set” (2004).

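Dose response: 5 concentrations. Exposure: 48 h. Format: 96-well plates. Endpoint: linear interpolation; highest concentration if not reached. GI50 = concentration required for 50% inhibition of growth.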 The source made the active and inactive calls. Rule as the data show it: active = GI50 up to about 1.1 µM and inactive = higher.

Among the test systems are A549; BT-549; CCRF-CEM; COLO 205; K562; MDA-MB-231; MDA-MB-435; MOLT-4; NCI-H23; NCI-H460; SF-268; SF-539; SK-MEL-28; SK-MEL-2; SNB-19; SNB-75; T47D; TK-10; UACC-257.
Holding throughout (test): growth of human tumour cells (NCI), 48 h

With `CC(=O)OCc1ccc2oc(=O)c(C(=O)Oc3cccc(Cl)c3)cc2c1`, the GI50 with A549 was > 100 µM (inactive); with BT-549 it was > 100 µM (inactive); in the experiment with CCRF-CEM, > 100 µM (inactive); in the experiment on COLO 205, 30.3 µM (inactive); in the experiment on K562 it was 23.9 µM (inactive); with MDA-MB-231, 32.4 µM (inactive). Also, the GI50 in the experiment with MDA-MB-435 was 64.4 µM (inactive); in the experiment with MOLT-4 it was 90.2 µM (inactive); in the experiment with NCI-H23 it was 74.6 µM (inactive); with NCI-H460, 37.9 µM (inactive); in the experiment on SF-268, > 100 µM (inactive); in the experiment on SF-539, 46.2 µM (inactive). Further, the GI50 with SK-MEL-28 is 83 µM (inactive); in the experiment with SK-MEL-2 it was 82.4 µM (inactive); with SNB-19, 83 µM (inactive); in the experiment on SNB-75 it was 37.8 µM (inactive); with T47D, 20.6 µM (inactive); in the experiment on TK-10, 31.5 µM (inactive). The GI50 with UACC-257 was 62.7 µM (inactive).

In the case of `NC(Cc1ccc(N(CCCl)CCCl)cc1)C(=O)NC(CCC(=O)O)C(=O)O` (stereo unspecified), the GI50 in the experiment on A549, in the experiment on BT-549, with CCRF-CEM, with COLO 205, with K562 and in the experiment with MDA-MB-231 was > 100 µM (inactive) throughout. The GI50 in the experiment with MDA-MB-435, in the experiment with MOLT-4, in the experiment with NCI-H23, with NCI-H460, in the experiment with SF-268 and with SF-539 was > 100 µM (inactive) in each case. The GI50 in the experiment on SK-MEL-28, in the experiment on SK-MEL-2, in the experiment with SNB-19, in the experiment on SNB-75, in the experiment with T47D and with TK-10 was > 100 µM (inactive) each time. Also, the GI50 in the experiment with UACC-257 was > 100 µM (inactive).

Turning to `C/C(=N\NC(=S)N1CCCCCCCCCCCC1)c1ccccn1`, the GI50 in the experiment with A549 is 0.356 µM (active); in the experiment with BT-549 it was 0.0991 µM (active); with CCRF-CEM it was 0.0431 µM (active); in the experiment with COLO 205 it was 0.0522 µM (active); in the experiment with K562 it was 0.0223 µM (active); in the experiment with MDA-MB-231, 0.169 µM (active). Besides, the GI50 was 0.15 µM (active) in the experiment with MDA-MB-435; 0.0318 µM (active) in the experiment with MOLT-4; 0.379 µM (active) with NCI-H23; 0.256 µM (active) in the experiment on NCI-H460; 0.225 µM (active) in the experiment with SF-268; 0.199 µM (active) with SF-539. Also, the GI50 was 0.33 µM (active) with SK-MEL-28; 0.299 µM (active) with SK-MEL-2; 0.659 µM (active) in the experiment on SNB-19; 0.243 µM (active) in the experiment with SNB-75; 0.233 µM (active) in the experiment with T47D; 0.166 µM (active) in the experiment on TK-10. In the experiment on UACC-257, the GI50 was 0.0689 µM (active).

With `Cc1ccc(/N=N/C(=N/c2ccccc2)c2ccc(N(CCC#N)CCC#N)cc2)cc1`, the GI50 in the experiment on A549 was 26.7 µM (inactive); in the experiment on BT-549 it was 13.2 µM (inactive); with CCRF-CEM it was 35.6 µM (inactive); in the experiment on COLO 205, 21.7 µM (inactive); with K562, 47.3 µM (inactive); in the experiment on MDA-MB-231, 22.1 µM (inactive). The GI50 is 38 µM (inactive) with MDA-MB-435; 43.7 µM (inactive) in the experiment with MOLT-4; 18.3 µM (inactive) in the experiment on NCI-H23; 20.1 µM (inactive) in the experiment with NCI-H460; 40.3 µM (inactive) with SF-268; 28.8 µM (inactive) in the experiment with SF-539. The GI50 was 39.8 µM (inactive) in the experiment on SK-MEL-28; 19.7 µM (inactive) in the experiment on SK-MEL-2; 37.5 µM (inactive) in the experiment with SNB-19; 31.1 µM (inactive) in the experiment on SNB-75; 23.7 µM (inactive) in the experiment with T47D; 27.2 µM (inactive) in the experiment on TK-10. The GI50 in the experiment on UACC-257 was 19.3 µM (inactive).
